Literature values, collected in US20190000808A1, “COMPOSITION AND METHODS FOR THE TREATMENT OF BLEPHOPHAROPTOSIS” (Allergan, Inc., priority 2015, published 2019).

Tests used:
[1] = test system: alpha-1 adrenergic receptors on Muller's muscle; settings: single drop, typically 2.5%; temporary reversal of ptosis

Compound	eyelid elevation [1]	tolerability (accommodation of the eye; topical concentrations above 0.5%, side effects red eyes, ocular pain, brow ache, headache)	effect on accommodation of the eye (accommodation of the eye; topical concentrations below 0.5%)
CNC[C@H](O)c1cccc(O)c1 [phenylephrine]	causes eyelid elevation		
CC[C@@H]1C(=O)OC[C@@H]1Cc1cncn1C [Pilocarpine, (3S,4R)-3-Ethyl-4((1-methyl-1H-imidazol-5-yl)methyl)dihydrofuran-2(3H)-one]		not tolerated	minimal effect
